Source: US8697727B2, “N-substituted-heterocycloalkyloxybenzamide compounds and methods of use” (Rigel Pharmaceuticals, Inc., priority 2006, dated 2014)

These compounds were tested on AMPK (assay: AMPK activation, enzyme-linked immunosorbent assay).
Type: cell-based
Procedure, shortened: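 Cell-based assay in which AMPK activity was measured as the relative concentration of phosphorylated acetyl-CoA carboxylase, a product of AMPK, by enzyme-linked immunosorbent assay. The endpoint is the EC50 for AMPK activation of each compound. EC50 values were reported in ranges: less than 1 μM, 1-10 μM, 10-20 μM, 20-50 μM, 50-100 μM, and >100 μM.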

Row | Compound | EC50
1 | O=C(NC1CCN(C(=O)c2ccc(F)cc2)CC1)c1ccc(OC2CCN(c3ccc(C(F)(F)F)cc3)CC2)c(F)c1 [Compound 31, 3-fluoro-N-(1-(4-fluorobenzoyl)piperidin-4-yl)-4-(1-(4-(trifluoromethyl)phenyl)piperidin-4-yloxy)benzamide] | < 1000 nM
2 | O=C(NC1CCN(Cc2ccccn2)CC1)c1ccc(OC2CCN(c3ccc(C(F)(F)F)cc3)CC2)c(F)c1 [Compound 32, 3-fluoro-N-(1-(pyridin-2-ylmethyl)piperidin-4-yl)-4-(1-(4-(trifluoromethyl)phenyl)piperidin-4-yloxy)benzamide] | < 1000 nM
3 | COC(=O)c1ccc(CN2CCC(NC(=O)c3ccc(OC4CCN(c5ccc(C(F)(F)F)cc5)CC4)c(F)c3)CC2)cc1 [Compound 33, methyl 4-((4-(3-fluoro-4-(1-(4-(trifluoromethyl)phenyl)piperidin-4-yloxy)benzamido)piperidin-1-yl)methyl)benzoate] | < 1000 nM
4 | CC(C)S(=O)(=O)N1CCC(NC(=O)c2ccc(OC3CCN(c4ccc(C(F)(F)F)cc4)CC3)c(F)c2)CC1 [Compound 34, 3-fluoro-N-(1-(isopropylsulfonyl)piperidin-4-yl)-4-(1-(4-(trifluoromethyl)phenyl)piperidin-4-yloxy)benzamide] | < 1000 nM
5 | O=C(O)c1ccc(CN2CCC(NC(=O)c3ccc(OC4CCN(c5ccc(C(F)(F)F)cc5)CC4)c(F)c3)CC2)cc1 [Compound 35, 4-((4-(3-fluoro-4-(1-(4-(trifluoromethyl)phenyl)piperidin-4-yloxy)benzamido)piperidin-1-yl)methyl)benzoic acid] | 1000 to 10000 nM
6 | CC(C)(C)c1ccc(CN2CCC(Oc3ccc(C(=O)NC4CCN(c5ccccc5)CC4)cc3F)CC2)cc1 [Compound 36, 4-(1-(4-tert-butylbenzyl)piperidin-4-yloxy)-3-fluoro-N-(1-phenylpiperidin-4-yl)benzamide] | < 1000 nM
7 | O=C(NC1CCN(Cc2ccccc2)CC1)c1ccc(OC2CCN(Cc3ccncc3)CC2)c(F)c1 [Compound 37, N-(1-benzylpiperidin-4-yl)-3-fluoro-4-(1-(pyridin-4-ylmethyl)piperidin-4-yloxy)benzamide] | < 1000 nM
8 | O=C(NC1CCN(Cc2ccccc2)CC1)c1ccc(OC2CCN(Cc3cccnc3)CC2)c(F)c1 [Compound 38, N-(1-benzylpiperidin-4-yl)-3-fluoro-4-(1-(pyridin-3-ylmethyl)piperidin-4-yloxy)benzamide] | 1000 to 10000 nM
9 | O=C(NC1CCN(Cc2ccccc2)CC1)c1ccc(OC2CCN(Cc3ccccn3)CC2)c(F)c1 [Compound 39, N-(1-benzylpiperidin-4-yl)-3-fluoro-4-(1-(pyridin-2-ylmethyl)piperidin-4-yloxy)benzamide] | 1000 to 10000 nM
10 | O=C(NC1CCN(C(=O)c2ccncc2)CC1)c1ccc(OC2CCN(c3ccc(C(F)(F)F)cc3)CC2)c(F)c1 [Compound 40, 3-fluoro-N-(1-isonicotinoylpiperidin-4-yl)-4-(1-(4-(trifluoromethyl)phenyl)piperidin-4-yloxy)benzamide] | < 1000 nM
11 | N#Cc1ccc(CN2CCC(Oc3ccc(C(=O)NC4CCN(Cc5ccccc5)CC4)cc3F)CC2)cc1 [Compound 41, N-(1-benzylpiperidin-4-yl)-4-(1-(4-cyanobenzyl)piperidin-4-yloxy)-3-fluorobenzamide] | < 1000 nM
12 | Cc1ccc(CN2CCC(Oc3ccc(C(=O)NC4CCN(Cc5ccccc5)CC4)cc3F)CC2)cc1 [Compound 42, N-(1-benzylpiperidin-4-yl)-3-fluoro-4-(1-(4-methylbenzyl)piperidin-4-yloxy)benzamide] | < 1000 nM
13 | N#Cc1ccc(CN2CCC(NC(=O)c3ccc(OC4CCN(c5ccc(C(F)(F)F)cc5)CC4)c(F)c3)CC2)cc1 [Compound 43, N-(1-(4-cyanobenzyl)piperidin-4-yl)-3-fluoro-4-(1-(4-(trifluoromethyl)phenyl)piperidin-4-yloxy)benzamide] | < 1000 nM
14 | N#Cc1ccc(N2CCC(Oc3ccc(C(=O)NC4CCN(Cc5ccncc5)CC4)cc3F)CC2)cc1 [Compound 44, 4-(1-(4-cyanophenyl)piperidin-4-yloxy)-3-fluoro-N-(1-(pyridin-4-ylmethyl)piperidin-4-yl)benzamide] | < 1000 nM
15 | N#Cc1ccc(CN2CCC(NC(=O)c3ccc(OC4CCN(c5ccc(C#N)cc5)CC4)c(F)c3)CC2)cc1 [Compound 45, N-(1-(4-cyanobenzyl)piperidin-4-yl)-4-(1-(4-cyanophenyl)piperidin-4-yloxy)-3-fluorobenzamide] | < 1000 nM
16 | O=C(NC1CCN(Cc2ccccc2)CC1)c1cccc(OC2CCN(c3ccc(C(F)(F)F)cc3)CC2)c1 [Compound 46, N-(1-benzylpiperidin-4-yl)-3-(1-(4-(trifluoromethyl)phenyl)piperidin-4-yloxy)benzamide] | < 1000 nM
17 | O=C(NC1CCN(Cc2ccccc2)CC1)c1ccc(OC2CCN(c3ccc(C(F)(F)F)cc3)CC2)cc1Cl [Compound 47, N-(1-benzylpiperidin-4-yl)-2-chloro-4-(1-(4-(trifluoromethyl)phenyl)piperidin-4-yloxy)benzamide] | < 1000 nM
18 | N#Cc1ccc(N2CCC(Oc3cccc(C(=O)NC4CCN(Cc5ccccc5)CC4)c3)CC2)cc1 [Compound 48, N-(1-benzylpiperidin-4-yl)-3-(1-(4-cyanophenyl)piperidin-4-yloxy)benzamide] | < 1000 nM

Row | Compound | EC50
19 | N#Cc1ccc(N2CCC(Oc3ccc(C(=O)NC4CCN(Cc5ccccc5)CC4)c(Cl)c3)CC2)cc1 [Compound 49, N-(1-benzylpiperidin-4-yl)-2-chloro-4-(1-(4-cyanophenyl)piperidin-4-yloxy)benzamide] | < 1000 nM
20 | N#Cc1ccc(CN2CCC(Oc3cccc(C(=O)NC4CCN(Cc5ccccc5)CC4)c3)CC2)cc1 [Compound 50, N-(1-benzylpiperidin-4-yl)-3-(1-(4-cyanobenzyl)piperidin-4-yloxy)benzamide] | 1000 to 10000 nM
21 | N#Cc1ccc(CN2CCC(Oc3ccc(C(=O)NC4CCN(Cc5ccccc5)CC4)c(Cl)c3)CC2)cc1 [Compound 51, N-(1-benzylpiperidin-4-yl)-2-chloro-4-(1-(4-cyanobenzyl)piperidin-4-yloxy)benzamide] | < 1000 nM
22 | O=C(NC1CCN(Cc2ccccc2)CC1)c1cccc(OC2CCN(Cc3ccc(C(F)(F)F)cc3)CC2)c1 [Compound 52, N-(1-benzylpiperidin-4-yl)-3-(1-(4-(trifluoromethyl)benzyl)piperidin-4-yloxy)benzamide] | 1000 to 10000 nM
23 | O=C(NC1CCN(Cc2ccccc2)CC1)c1cccc(OC2CCN(c3ccncc3)CC2)c1 [Compound 53, N-(1-benzylpiperidin-4-yl)-3-(1-(pyridin-4-yl)piperidin-4-yloxy)benzamide] | 10000 to 20000 nM
24 | O=C(NC1CCN(Cc2ccccc2)CC1)c1ccc(OC2CCN(Cc3ccc(OC(F)(F)F)cc3)CC2)c(Cl)c1 [Compound 54, N-(1-benzylpiperidin-4-yl)-3-chloro-4-(1-(4-(trifluoromethoxy)benzyl)piperidin-4-yloxy)benzamide] | < 1000 nM
25 | O=C(NC1CCN(Cc2ccccc2)CC1)c1ccc(OC2CCN(Cc3ccc(C(F)(F)F)cc3)CC2)c(F)c1 [Compound 55, N-(1-benzylpiperidin-4-yl)-3-fluoro-4-(1-(4-(trifluoromethyl)benzyl)piperidin-4-yloxy)benzamide] | < 1000 nM
26 | O=C(NC1CCN(Cc2ccccc2)CC1)c1ccc(OC2CCN(Cc3ccc(C(F)(F)F)cc3)CC2)c(Cl)c1 [Compound 56, N-(1-benzylpiperidin-4-yl)-3-chloro-4-(1-(4-(trifluoromethyl)benzyl)piperidin-4-yloxy)benzamide] | < 1000 nM
27 | O=C(NC1CCN(Cc2ccccc2)CC1)c1ccc(OC2CCN(Cc3ccc(OC(F)(F)F)cc3)CC2)c(F)c1 [Compound 57, N-(1-benzylpiperidin-4-yl)-3-fluoro-4-(1-(4-(trifluoromethoxy)benzyl)piperidin-4-yloxy)benzamide] | < 1000 nM
28 | CN1CCC(NC(=O)c2ccc(OC3CCN(Cc4ccc(C(F)(F)F)cc4)CC3)c(Cl)c2)CC1 [Compound 58, 3-chloro-N-(1-methylpiperidin-4-yl)-4-(1-(4-(trifluoromethyl)benzyl)piperidin-4-yloxy)benzamide] | 1000 to 10000 nM
29 | O=C(NC1CCN(Cc2ccccc2)CC1)c1ccc(OC2CCN(Cc3cccc(C(F)(F)F)c3)CC2)c(F)c1 [Compound 59, N-(1-benzylpiperidin-4-yl)-3-fluoro-4-(1-(3-(trifluoromethyl)benzyl)piperidin-4-yloxy)benzamide] | < 1000 nM
30 | O=C(NC1CCN(Cc2ccccc2)CC1)c1ccc(OC2CCN(Cc3cccc(C(F)(F)F)c3)CC2)c(Cl)c1 [Compound 60, N-(1-benzylpiperidin-4-yl)-3-chloro-4-(1-(3-(trifluoromethyl)benzyl)piperidin-4-yloxy)benzamide] | < 1000 nM
31 | O=C(NC1CCN(Cc2ccccc2)CC1)c1ccc(OC2CCN(Cc3ccc(F)cc3)CC2)c(F)c1 [Compound 61, N-(1-benzylpiperidin-4-yl)-3-fluoro-4-(1-(4-fluorobenzyl)piperidin-4-yloxy)benzamide] | < 1000 nM
32 | O=C(NC1CCN(Cc2ccccc2)CC1)c1cc(Cl)c(OC2CCN(Cc3cccc(C(F)(F)F)c3)CC2)c(Cl)c1 [Compound 62, N-(1-benzylpiperidin-4-yl)-3,5-dichloro-4-(1-(3-(trifluoromethyl)benzyl)piperidin-4-yloxy)benzamide] | < 1000 nM
33 | O=C(NC1CCN(Cc2ccccc2)CC1)c1ccc(OC2CCN(Cc3ccc(OC(F)(F)F)cc3)CC2)cc1 [Compound 63, N-(1-benzylpiperidin-4-yl)-4-(1-(4-(trifluoromethoxy)benzyl)piperidin-4-yloxy)benzamide] | < 1000 nM
34 | O=C(NC1CCN(Cc2ccccc2)CC1)c1ccc(OC2CCN(Cc3ccc(Cl)cc3)CC2)c(F)c1 [Compound 64, N-(1-benzylpiperidin-4-yl)-4-(1-(4-chlorobenzyl)piperidin-4-yloxy)-3-fluorobenzamide] | < 1000 nM
35 | O=C(NC1CCN(Cc2ccccc2)CC1)c1ccc(OC2CCN(Cc3ccc(Cl)cc3)CC2)c(Cl)c1 [Compound 65, N-(1-benzylpiperidin-4-yl)-3-chloro-4-(1-(4-chlorobenzyl)piperidin-4-yloxy)benzamide] | < 1000 nM
